We go through one compound from patent US10378060B2, “ZNF365/ZFP365 biomarker predictive of anti-cancer response” (Dana-Farber Cancer Institute, Inc., priority 2011, dated 2019).

The subject of one test is U2OS cells. In words: 53BP1-positive DNA damage foci (DSB) staining. The test is classed as cell-based. The conditions noted are these: ZNF365-deficient U2OS cells (shZNF-2 or shZNF-5), additional treatment with 1 μM ABT888. The source says: FIGS. 10A-10C show increased DNA double strand breaks (DSB) in ZNF365-deficient cells.
U2OS cells infected with either a control scrambled shRNA (Scr) to establish the basal DSB levels or with either of two independent shRNA sequences targeting ZNF365 (shZNF-2 or shZNF-5) were scored for 53BP1-positive damage foci as an indicator of DSB (FIG. 10A; red highlighted dots indicates foci and dotted circles indicate nuclei). Quantification of the 53BP1-positive foci indicated increased numbers of DSB in ZNF365-deficient cells (FIG. 10B).

Test [1] has as its system MCF7 breast cancer cell line. In words: MTT cell proliferation assay. The test is classed as cell-based. The note with it: MCF7 control (TR) vs shZNF cells, different doses of ABT888 for 48 hours with or without radiation (2 Gy). On the procedure: Control cells of the MCF7 breast cancer cell line (TR), as well as MCF7 cells transfected with shRNAs targeting ZNF365 (shZNF) were treated with different doses of the PARP inhibitor, ABT888, for 48 hours with or without radiation (2 Gy). A standard MTT cell proliferation assay was performed to determine cell viability.

Turning to `C[C@]1(c2nc3c(C(N)=O)cccc3[nH]2)CCCN1` [ABT888], the “53BP1-positive DNA damage foci as an indicator of DSB” value in the test with U2OS cells is “became more prominent”. Besides, the cell viability entry in test [1] is on record as “ZNF365 deficiency sensitizes cells”.
